{
  "source": "patent US10577333B2",
  "about": "“Tetrazole derivatives as cytochrome P450 inhibitors” (C26 Bioscience AB, priority 2016, dated 2020)",
  "key": {"CYP26B1 [1]": {"biological_target": "T1, CYP26B1 (Homo sapiens, UniProt Q9NR63)", "T1 sequence (Q9NR63 1-512)": "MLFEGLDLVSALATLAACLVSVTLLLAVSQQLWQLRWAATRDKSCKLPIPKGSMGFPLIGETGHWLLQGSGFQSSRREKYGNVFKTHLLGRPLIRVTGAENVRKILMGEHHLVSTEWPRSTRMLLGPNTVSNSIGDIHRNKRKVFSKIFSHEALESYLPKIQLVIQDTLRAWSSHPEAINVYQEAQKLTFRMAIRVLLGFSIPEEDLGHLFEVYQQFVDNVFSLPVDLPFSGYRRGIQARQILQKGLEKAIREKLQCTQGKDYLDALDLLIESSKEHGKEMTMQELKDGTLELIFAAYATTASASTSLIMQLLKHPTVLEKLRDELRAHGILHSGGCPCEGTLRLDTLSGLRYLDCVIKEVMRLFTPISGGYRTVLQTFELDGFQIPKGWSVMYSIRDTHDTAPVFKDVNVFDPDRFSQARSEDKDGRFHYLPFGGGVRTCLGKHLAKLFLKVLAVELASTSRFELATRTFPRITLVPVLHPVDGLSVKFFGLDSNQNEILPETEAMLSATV", "experiment": "[3H] atRA catabolism in CYP26B1 transfected COS-1 cells, HPLC analysis", "assay_type": "cell-based", "set-up": "expressed in transfected cells; host or cells: COS-1", "conditions": "1 or 10 μM for 1 h, then [3H] atRA for 2 h", "procedure": "(§1) FIG. 3 illustrates quantification of atRA levels by HPLC in human smooth muscle cells and transfected COS-1 cells: A) Human smooth muscle cells were treated with 1 or 10 μM of the new CYP26 inhibitor for 1 h followed by a 4 h [^3H] atRA incubation. B) COS-1 transfected by 1 μg/μL of CYP26B1 and incubated with 1 or 10 μM of test compound followed by a 2 h [^3H] atRA incubation. For all experiments n=3; *P<0.05, **P<0.01 and ***P<0.001.\nTo investigate the specificity of our candidate to inhibit CYP26B1-mediated catabolism of atRA, COS-1 cells were transfected with CYP26B1 or an empty vector (in which case no CYP26B1 can be produced). COS-1 was maintained in Dulbecco's Modified Eagle's Medium (DMEM; Life Technologies, Carsbad, Calif., USA) and transfection of COS-1 was performed in 12 well plates using 1 μg/μl of CYP26B1 and 2 μl of lipofectamin 2000 in 250 μl of Opti-MEM (Opti-MEM: Modified Eagle's Minimum Essential Media; Life Technologies, Carlsbad, Calif., USA). The mixture was incubated at room temperature for 20 minutes and added to the plate for 4 h followed by addition of growth medium for 24 h. The next day, the medium was replaced by fresh DMEM and treated by 1 or 10 μM of the compound according to Formula II for 1 h followed by exposure to 1 μCl/ml of [^3H] atRA for 2 h, and subsequent HPLC analysis."}, "[2]": {"system": "atRA responsive genes CYP26B1 and RARβ", "experiment": "QRT-PCR of atRA responsive genes CYP26B1 and RARβ mRNA in human aortic smooth muscle cells", "assay_type": "cell-based", "conditions": "AOSMCs", "procedure": "FIG. 1 illustrates the induction of CYP26B1 and RARβ mRNA at different concentrations of test compound: A) CYP26 and B) RARβ in human smooth muscle cells treated with 0.001-10 μM of the test compound. For all experiments n=3; *P≤0.05, **P<0.01 and ***P<0.001.\nFIG. 2 are diagrams of CYP26B1 and RARβ mRNA expression in human smooth muscle cells upon treatment with atRA and/or test compound: A) CYP26B1 and B) RARβ mRNA expression in human smooth muscle cells treated with either 1 μm of atRA, test compound or combination of both for 48 h. The experiment was performed in three independent runs; *P≤0.05, **P<0.01 and ***P<0.001.\nHuman aortic smooth muscle cells (AOSMCs) were treated with different concentrations of a compound of Formula II (0.001-10 μM; FIGS. 1A and B). AOSMCs were incubated with different concentration (0.001-10 μM) of compound according to Formula II, or DMSO as control, at 37 C for 24 h. Total RNA were isolated by using E.Z.N.A total RNA kit (VWR Stockholm Sweden) and cDNA synthesis was performed through high capacity reverse transcription kits (applied Biosystems, Foster City, Calif., USA) according to manufacturers instructions.\nNext, human AOSMCs were treated with either 1 μM of atRA or a compound of Formula II alone, or a combination of both for 48 h. The purification and analysis procedures were as described above. […] The results strongly indicate that the compound of Formula II increases retinoid signalling."}, "CYP26B1 [3]": {"biological_target": "T1, CYP26B1", "experiment": "[3H] atRA catabolism in human smooth muscle cells, HPLC analysis", "assay_type": "cell-based", "set-up": "endogenous in cells; host or cells: human aortic smooth muscle cells (AOSMC)", "conditions": "AOSMCs, 1 or 10 μM for 1 h, then [3H] atRA for 4 h", "procedure": "as §1\nAOSMCs were seeded out in density of 2×10^5 in 6 well plates incubated with two different concentrations (1 and 10 μM) of compound according to Formula II for 1 h followed by exposure to 1 μCl/ml of [^3H] atRA for 4 h. Cells were thereafter washed using BSA 1 mg/ml of PBS followed by HPLC analysis."}, "purified CYP26B1": {"biological_target": "T2, purified CYP26B1 (Homo sapiens, UniProt Q9NR63)", "T2 construct": "made in house", "T2 sequence (Q9NR63 1-512)": "T1 sequence (Q9NR63 1-512)", "experiment": "Enzymatic assay on purified CYP26B1 with oxidoreductase and NADPH, [3H] atRA, HPLC", "assay_type": "biochemical", "conditions": "5 μM, 5 nM CYP26B1, 50 nM [3H] atRA, 1 mM NADPH, 10 sec to 10 min", "procedure": "FIG. 4 is a graph showing results from an enzymatic assay carried out on purified CYP26B1, incubated with 5 or 25 μM of the test compound in the presence of oxidoreductase and NADPH, at different time points. The control experiment was performed without initiation with NADPH. For all experiments n=3.\nTo investigate the efficiency of the compound of Formula II in blocking CYP26B1, CYP26B1 was purified and subsequently incubated with 5 and 25 μM of compound of Formula II for different time points (10 s to 10 min). This experiment thus excludes any other possible metabolic route that potentially could have been present in the cellular experiments. Purified CYP26B1 was stored in buffer containing 50 mM K2HPO4, 0.5 mM EDTA and 20% of glycerol, pH 7.4 at −80° C. The assay was performed as follows: 5 nM of CYP26B1 and 10 nM oxidoreductase was preincubated. 5 or 25 μM of the compound of Formula II and 50 nM [^3H] atRA were added followed by addition of 1 mM NADPH in total volume of 100 μl of Kpi buffer and incubated for 10 sec to 10 min. The reaction was stopped by adding 100 μl absolute ethanol. The sample was subsequently extracted and analysed by HPLC. For control, experiments were performed as above but without initiation of the reaction by NADPH."}, "[4]": {"conditions": "1 μM in combination with atRA, 48 h"}, "[5]": {"conditions": "0.001-10 μM, 24 h, normalized to Cyclophilin A, vs DMSO control"}},
  "data": [
    {"smiles": "Cn1nnnc1SCCC(=O)NCc1ccc(C(=O)O)cc1", "note": "[compound of Formula II]", "values": [
      {"measurement": "levels of atRA", "setting": "CYP26B1 [1]", "result": "significantly increased the levels of atRA"},
      {"measurement": "effect of atRA on induction of CYP26B1 mRNA", "setting": "[2]; [4]", "result": "significantly increased the effects of atRA on the induction"},
      {"measurement": "effect of atRA on induction of RARβ mRNA", "setting": "[2]; [4]", "result": "significantly increased the effects of atRA on the induction"},
      {"measurement": "expression of CYP26B1 mRNA", "setting": "[2]; [5]", "result": "significantly induced in a dose-dependent manner"},
      {"measurement": "expression of RARβ mRNA", "setting": "[2]; [5]", "result": "significantly induced in a dose-dependent manner"},
      {"measurement": "degradation of atRA in the cells", "setting": "CYP26B1 [3]", "result": "greatly reduces the degradation of atRA"},
      {"measurement": "RA degradation by purified CYP26B1", "setting": "purified CYP26B1", "result": "efficiently inhibited RA degradation"}
    ]}
  ]
}
